Test results as given in patent publication US6358885B1, “Substituted phenylheterocyclic herbicides” (Mississippi State University, priority 1992, dated 2002).

Legend:
lambsquarters = test: Test B preemergence/postemergence greenhouse plant response rating 0 to 10; assay type: in vivo, Chenopodium album; conditions: 0 to 10 scale
Method in brief: (§1)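 Test chemicals were sprayed onto freshly planted seed and, concurrently, onto young plants between the one and four leaf stage. After a twelve- to sixteen-day greenhouse period, each species was visually compared with untreated controls.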

rice = test: as above; assay type: in vivo, Oryza sativa; conditions: 0 to 10 scale
Method in brief: as §1

soybean = test: as above; assay type: in vivo, Glycine max; conditions: 0 to 10 scale
Method in brief: as §1

wheat = test: as above; assay type: in vivo, Triticum aestivum; conditions: 0 to 10 scale
Method in brief: as §1

wild buckwheat [1] = test: as above; assay type: in vivo, Polygonum convolvulus; conditions: 0 to 10 scale
Method in brief: as §1

wild oat = test: as above; assay type: in vivo, Avena fatua; conditions: 0 to 10 scale
Method in brief: as §1

blackgrass = test: Test C preemergence/postemergence greenhouse plant response rating 0 to 100; assay type: in vivo, Alopecurus myosuroides; conditions: for Plant response rating, Blackgrass: 62 g/ha, 0 to 100 scale
Method in brief: (§2)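 Compounds in non-phytotoxic solvent went onto sandy loam before emergence (seeded one day earlier) or onto plants at the one-to-four leaf stage. Duck salad was treated via flood water (~2.5 cm, maintained) over silt loam.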

downy brome = test: as above; assay type: in vivo, Bromus tectorum; conditions: for Plant response rating Downy Brome: 62 g/ha, 0 to 100 scale
Method in brief: as §2

sorghum = test: as above; assay type: in vivo, Sorghum bicolor
Method in brief: as §2

sugar beet = test: as above; assay type: in vivo, Beta vulgaris
Method in brief: as §2

wild buckwheat [2] = test: as above; assay type: in vivo, Polygonum convolvulus
Method in brief: as §2

barnyardgrass = test: Test C flood test plant response rating 0 to 100; assay type: in vivo, Echinochloa crus-galli
Method in brief: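 Compounds in non-phytotoxic solvent applied preemergence to sandy loam one day after planting, postemergence at the 1–4 leaf stage, or to ~2.5 cm floodwater over silt loam.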

[3] = POSTEMERGENCE, 62 g/ha, 0 to 100 scale

CCN1C(=O)COc2cc(F)c(-c3nn4c(c3Cl)CCCC4)cc21 [Compound 54]
Plant response rating, Lambsquarter (lambsquarters; POSTEMERGENCE, Rate 10 g/ha): 10 | Plant response rating, Lambsquarter (lambsquarters; POSTEMERGENCE, Rate 50 g/ha): 10 | Plant response rating, Lambsquarter (lambsquarters; PREEMERGENCE, Rate 50 g/ha): 10 | Plant response rating, Rice (rice; POSTEMERGENCE, Rate 10 g/ha): 3 | Plant response rating, Rice (rice; POSTEMERGENCE, Rate 50 g/ha): 4 | Plant response rating, Rice (rice; PREEMERGENCE, Rate 50 g/ha): 0 | Plant response rating, Soybean (soybean; POSTEMERGENCE, Rate 10 g/ha): 8 | Plant response rating, Soybean (soybean; POSTEMERGENCE, Rate 50 g/ha): 9 | Plant response rating, Soybean (soybean; PREEMERGENCE, Rate 50 g/ha): 0 | Plant response rating, Wheat (wheat; POSTEMERGENCE, Rate 10 g/ha): 6 | Plant response rating, Wheat (wheat; POSTEMERGENCE, Rate 50 g/ha): 6 | Plant response rating, Wheat (wheat; PREEMERGENCE, Rate 50 g/ha): 3 | Plant response rating, Wild buckwheat (wild buckwheat [1]; POSTEMERGENCE, Rate 10 g/ha): 10 | Plant response rating, Wild buckwheat (wild buckwheat [1]; POSTEMERGENCE, Rate 50 g/ha): 10 | Plant response rating, Wild buckwheat (wild buckwheat [1]; PREEMERGENCE, Rate 50 g/ha): 10 | Plant response rating, Wild oat (wild oat; POSTEMERGENCE, Rate 10 g/ha): 4 | Plant response rating, Wild oat (wild oat; POSTEMERGENCE, Rate 50 g/ha): 7 | Plant response rating, Wild oat (wild oat; PREEMERGENCE, Rate 50 g/ha): 2 | Plant response rating, Blackgrass (blackgrass; POSTEMERGENCE): 60 | Plant response rating (0 to 100), Blackgrass (blackgrass; POSTEMERGENCE, Rate 1 g/ha): 30 | Plant response rating (0 to 100), Blackgrass (blackgrass; POSTEMERGENCE, Rate 4 g/ha): 40 | Plant response rating, Blackgrass (blackgrass; PREEMERGENCE): 70 | Plant response rating (0 to 100), Blackgrass (blackgrass; PREEMERGENCE, Rate 1 g/ha): 0 | Plant response rating (0 to 100), Blackgrass (blackgrass; PREEMERGENCE, Rate 4 g/ha): 10 | Plant response rating (0 to 100), Blackgrass (blackgrass; Rate 16 g/ha, POSTEMERGENCE): 50 | Plant response rating (0 to 100), Blackgrass (blackgrass; Rate 16 g/ha, PREEMERGENCE): 20 | Plant response rating Downy Brome (downy brome; POSTEMERGENCE): 60 | Plant response rating (0 to 100), Downy Brome (downy brome; POSTEMERGENCE, Rate 1 g/ha): 10 | Plant response rating (0 to 100), Downy Brome (downy brome; POSTEMERGENCE, Rate 4 g/ha): 30 | Plant response rating Downy Brome (downy brome; PREEMERGENCE): 30 | Plant response rating (0 to 100), Downy Brome (downy brome; PREEMERGENCE, Rate 1 g/ha): 0 | Plant response rating (0 to 100), Downy Brome (downy brome; PREEMERGENCE, Rate 4 g/ha): 0 | Plant response rating (0 to 100), Downy Brome (downy brome; Rate 16 g/ha, POSTEMERGENCE): 50 | Plant response rating (0 to 100), Downy Brome (downy brome; Rate 16 g/ha, PREEMERGENCE): 20 | Plant response rating, Sorghum (sorghum; [3]): 60 | Plant response rating (0 to 100), Sorghum (sorghum; POSTEMERGENCE, Rate 1 g/ha): 20 | Plant response rating (0 to 100), Sorghum (sorghum; POSTEMERGENCE, Rate 4 g/ha): 40 | Plant response rating (0 to 100), Sorghum (sorghum; PREEMERGENCE, Rate 1 g/ha): 0 | Plant response rating (0 to 100), Sorghum (sorghum; PREEMERGENCE, Rate 4 g/ha): 0 | Plant response rating (0 to 100), Sorghum (sorghum; Rate 16 g/ha, POSTEMERGENCE): 50 | Plant response rating (0 to 100), Sorghum (sorghum; Rate 16 g/ha, PREEMERGENCE): 0 | Plant response rating, Sugar beet (sugar beet; [3]): 100 | Plant response rating (0 to 100), Sugar beet (sugar beet; POSTEMERGENCE, Rate 1 g/ha): 100 | Plant response rating (0 to 100), Sugar beet (sugar beet; POSTEMERGENCE, Rate 4 g/ha): 100 | Plant response rating (0 to 100), Sugar beet (sugar beet; PREEMERGENCE, Rate 1 g/ha): 0 | Plant response rating (0 to 100), Sugar beet (sugar beet; PREEMERGENCE, Rate 4 g/ha): 10 | Plant response rating (0 to 100), Sugar beet (sugar beet; Rate 16 g/ha, POSTEMERGENCE): 100 | Plant response rating (0 to 100), Sugar beet (sugar beet; Rate 16 g/ha, PREEMERGENCE): 100 | Plant response rating, Wild buckwheat (wild buckwheat [2]; [3]): 100 | Plant response rating (0 to 100), Wild buckwheat (wild buckwheat [2]; POSTEMERGENCE, Rate 1 g/ha): 100 | Plant response rating (0 to 100), Wild buckwheat (wild buckwheat [2]; POSTEMERGENCE, Rate 4 g/ha): 100 | Plant response rating (0 to 100), Wild buckwheat (wild buckwheat [2]; PREEMERGENCE, Rate 1 g/ha): 0 | Plant response rating (0 to 100), Wild buckwheat (wild buckwheat [2]; PREEMERGENCE, Rate 4 g/ha): 0 | Plant response rating (0 to 100), Wild buckwheat (wild buckwheat [2]; Rate 16 g/ha, POSTEMERGENCE): 100 | Plant response rating (0 to 100), Wild buckwheat (wild buckwheat [2]; Rate 16 g/ha, PREEMERGENCE): 100 | Plant response rating (0 to 100), Barnyardgrass 2 (barnyardgrass; POSTEMERGENCE section, flood test, Rate 1 g/ha): 0 | Plant response rating (0 to 100), Barnyardgrass 2 (barnyardgrass; POSTEMERGENCE section, flood test, Rate 4 g/ha): 10 | Plant response rating (0 to 100), Barnyardgrass 2 (barnyardgrass; Rate 16 g/ha, under POSTEMERGENCE head (flood test species)): 95 | Plant response rating Barnyardgrass 2 (barnyardgrass; flood test species listed under POSTEMERGENCE, 62 g/ha, 0 to 100 scale): 100
